Test results: patent publication US8148391B2 (Cephalon, Inc., priority 2006, dated 2012)
Where two headings read alike, the source gives them in different places. One block for each molecule: values may come before it.

Tests used:
[1] = target: T1, baculovirus-expressed ALK (Homo sapiens, UniProt Q9UM73); test: ALK Kinase Assay (ELISA-type, time-resolved fluorescence); format: biochemical
T1 construct: host or cells: baculovirus expression system
In short: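 Substrate coating: phospholipase C-γ, 10 μg/mL in TBS. Kinase step: 30 ng/ml ALK, 15 min, 37° C. Detection and analysis: Eu-N1 PT66 antibody, with IC50 fitted as a sigmoidal variable-slope dose-response curve.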

[2] = target: T2, c-Met (cytoplasmic domain) (Homo sapiens, UniProt P08581); test: c-Met Kinase Assay (same methods as for ALK, with modifications); format: biochemical
T2 construct: 10 ng/mL c-Met (cytoplasmic domain, Invitrogen Corporation #PV3143); purchased Invitrogen Corporation PV3143
T2 sequence (P08581 956-1390 limits assumed): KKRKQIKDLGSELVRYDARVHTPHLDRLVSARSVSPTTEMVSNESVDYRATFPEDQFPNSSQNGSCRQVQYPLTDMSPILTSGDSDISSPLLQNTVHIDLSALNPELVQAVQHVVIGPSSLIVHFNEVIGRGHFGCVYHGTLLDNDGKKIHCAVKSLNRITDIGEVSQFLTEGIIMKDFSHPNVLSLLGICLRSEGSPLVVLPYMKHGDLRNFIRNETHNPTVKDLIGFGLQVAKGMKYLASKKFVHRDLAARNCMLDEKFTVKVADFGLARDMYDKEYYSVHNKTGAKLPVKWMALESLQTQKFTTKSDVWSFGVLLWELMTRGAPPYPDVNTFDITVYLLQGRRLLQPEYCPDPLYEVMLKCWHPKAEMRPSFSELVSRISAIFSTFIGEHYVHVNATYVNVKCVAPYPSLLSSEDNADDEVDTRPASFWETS
In short: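 Wells were coated with 10 μg/mL phospholipase C-γ substrate in TBS, and reactions were started with 10 ng/mL c-Met cytoplasmic domain and run at 37° C for 15 minutes. Phosphorylated product was detected with Eu-N1-labeled PT66 antibody. IC50 values came from sigmoidal variable-slope fits of percent inhibition versus log compound concentration.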

[3] = ALK kinase inhibition, 1 μM ATP (Km level), read-out: ALK Activity
[4] = c-Met kinase inhibition, 1 μM ATP (Km level), read-out: cMet Activity
[5] = 1 μM ATP (Km level), read-out: ALK Activity (ALK Kinase Inhibition, IC50)
[6] = 1 μM ATP (Km level), read-out: cMet Activity (c-Met Kinase Inhibition, IC50)
[7] = 1 μM ATP (Km level), 30 ng/ml ALK, 37° C., 15 minutes, read-out: ALK Activity (ALK kinase inhibition, IC50 class)
[8] = 1 μM ATP (Km level), 10 ng/mL c-Met, read-out: cMet Activity (c-Met kinase inhibition, IC50 class)
[9] = ALK kinase inhibition, 1 μM ATP, read-out: ALK Activity
[10] = c-Met kinase inhibition, 1 μM ATP, read-out: cMet Activity

T1 sequence (Q9UM73 19-1620): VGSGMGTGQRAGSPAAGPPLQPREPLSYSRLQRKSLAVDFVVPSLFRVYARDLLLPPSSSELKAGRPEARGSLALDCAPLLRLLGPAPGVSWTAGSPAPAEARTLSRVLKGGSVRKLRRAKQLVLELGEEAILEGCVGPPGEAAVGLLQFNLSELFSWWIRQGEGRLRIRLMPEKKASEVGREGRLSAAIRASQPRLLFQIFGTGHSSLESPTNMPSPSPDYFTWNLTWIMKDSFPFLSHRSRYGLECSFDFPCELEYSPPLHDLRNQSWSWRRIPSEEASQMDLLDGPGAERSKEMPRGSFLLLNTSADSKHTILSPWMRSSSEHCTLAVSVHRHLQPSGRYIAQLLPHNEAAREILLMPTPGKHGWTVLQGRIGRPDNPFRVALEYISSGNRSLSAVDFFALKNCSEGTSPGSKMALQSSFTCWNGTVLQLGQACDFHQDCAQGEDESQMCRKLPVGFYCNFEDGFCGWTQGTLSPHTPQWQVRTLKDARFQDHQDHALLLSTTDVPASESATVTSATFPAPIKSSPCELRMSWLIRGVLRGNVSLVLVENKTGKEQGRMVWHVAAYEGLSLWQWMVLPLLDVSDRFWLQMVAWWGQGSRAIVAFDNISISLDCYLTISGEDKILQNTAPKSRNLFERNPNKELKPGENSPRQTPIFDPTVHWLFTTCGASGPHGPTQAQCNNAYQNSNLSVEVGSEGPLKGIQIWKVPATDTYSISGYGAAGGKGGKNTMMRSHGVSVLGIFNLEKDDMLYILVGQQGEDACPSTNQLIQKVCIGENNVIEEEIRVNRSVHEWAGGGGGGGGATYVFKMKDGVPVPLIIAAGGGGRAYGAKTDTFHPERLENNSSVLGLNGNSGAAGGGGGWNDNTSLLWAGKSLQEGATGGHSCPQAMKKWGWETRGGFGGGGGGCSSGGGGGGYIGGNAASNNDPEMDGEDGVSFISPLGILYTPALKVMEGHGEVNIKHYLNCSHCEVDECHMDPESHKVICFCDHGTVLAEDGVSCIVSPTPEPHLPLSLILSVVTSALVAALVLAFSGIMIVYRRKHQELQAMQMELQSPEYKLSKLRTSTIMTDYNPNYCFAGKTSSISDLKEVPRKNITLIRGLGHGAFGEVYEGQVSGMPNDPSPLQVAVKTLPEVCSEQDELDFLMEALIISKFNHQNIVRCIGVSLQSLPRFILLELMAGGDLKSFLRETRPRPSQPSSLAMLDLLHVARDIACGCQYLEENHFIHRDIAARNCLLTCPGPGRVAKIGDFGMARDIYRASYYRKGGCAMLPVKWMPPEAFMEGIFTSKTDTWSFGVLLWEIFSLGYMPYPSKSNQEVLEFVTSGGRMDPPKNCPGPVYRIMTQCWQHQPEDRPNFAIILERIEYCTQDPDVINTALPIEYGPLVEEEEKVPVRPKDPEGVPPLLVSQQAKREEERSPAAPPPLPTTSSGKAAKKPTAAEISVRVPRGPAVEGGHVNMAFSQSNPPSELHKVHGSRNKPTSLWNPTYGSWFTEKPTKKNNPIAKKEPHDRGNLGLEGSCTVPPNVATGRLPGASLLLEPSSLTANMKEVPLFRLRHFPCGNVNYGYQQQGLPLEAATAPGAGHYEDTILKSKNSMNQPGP

IC50 [1, 5]: < 100 nM
IC50 [2, 6]: 100 to 1000 nM
SMILES: COCCN1CCc2ccc(Nc3ncc(Cl)c(Nc4ccccc4-c4ncccn4)n3)cc2CC1 [Example 977, 5-Chloro-N*2*-[3-(2-methoxy-ethyl)-2,3,4,5-tetrahydro-1H-benzo[d]azepin-7-yl]-N*4*-(2-pyrimidin-2-yl-phenyl)-pyrimidine-2,4-diamine]

IC50 [1, 7]: < 100 nM
IC50 [2, 8]: 100 to 1000 nM
SMILES: CCCNC(=O)c1ccccc1Nc1nc(Nc2ccc3c(c2)C(C)(C)CCC(=O)N3)ncc1Cl [Example 1022, 2-[5-Chloro-2-(5,5-dimethyl-2-oxo-2,3,4,5-tetrahydro-1H-benzo[b]azepin-7-ylamino)-pyrimidin-4-ylamino]-N-propyl-benzamide]

IC50 [1, 3]: 100 to 1000 nM
IC50 [2, 4]: < 100 nM
SMILES: CNC(=O)c1cccc(Cl)c1Nc1nc(Nc2ccc3c(c2)N(C)CCNC3)ncc1Cl [Example 460, 3-Chloro-2-[5-chloro-2-(1-methyl-2,3,4,5-tetrahydro-1H-benzo[e][1,4]diazepin-8-ylamino)-pyrimidin-4-ylamino]-N-methyl-benzamide]

IC50 [1, 5]: 100 to 1000 nM
IC50 [2, 6]: > 10000 nM
SMILES: CC1(C)CCC(=O)Nc2ccc(Nc3ncc(Cl)c(Nc4ccccc4-c4ncccc4C(F)(F)F)n3)cc21 [Example 991, 7-{5-Chloro-4-[2-(3-trifluoromethyl-pyridin-2-yl)-phenylamino]-pyrimidin-2-ylamino}-5,5-dimethyl-1,3,4,5-tetrahydro-benzo[b]azepin-2-one]

IC50 [1, 5]: < 100 nM
IC50 [2, 6]: > 10000 nM
SMILES: COc1cc(N2CCOCC2)ccc1Nc1nc(Nc2ccc3c(c2OC)CCCC(N2CCOCC2)C3)ncc1Cl (stereo not shown) [Example 952, 5-Chloro-N(4)-(2-methoxy-4-morpholin-4-yl-phenyl)-N(2)-(1-methoxy-6-morpholin-4-yl-6,7,8,9-tetrahydro-5H-benzocyclohepten-2-yl)-pyrimidine-2,4-diamine]

IC50 [1, 9]: < 100 nM
IC50 [2, 10]: < 100 nM
SMILES: C#CCNC(=O)c1cccc(F)c1Nc1nc(Nc2ccc3c(c2)OCCCN3C(C)=O)ncc1Cl [Example 1725, 2-[2-(9-Acetyl-6,7,8,9-tetrahydro-5-oxa-9-aza-benzocyclohepten-3-ylamino)-5-chloro-pyrimidin-4-ylamino]-3-fluoro-N-prop-2-ynyl-benzamide]

IC50 [1, 9]: < 100 nM
IC50 [2, 10]: 1000 to 10000 nM
SMILES: CNC(=O)c1ccccc1Nc1nc(Nc2cc3c(cc2OC)CCOC(=O)N3C)ncc1Cl [Example 1511, 2-[5-Chloro-2-(2-methoxy-5-methyl-6-oxo-5,6,8,9-tetrahydro-7-oxa-5-aza-benzocyclohepten-3-ylamino)-pyrimidin-4-ylamino]-N-methyl-benzamide]

IC50 [1, 7]: < 100 nM
IC50 [2, 8]: 1000 to 10000 nM
SMILES: COCCN1CCc2ccc(Nc3ncc(Cl)c(Nc4ccccc4C(=O)NCC4CC4)n3)cc2CC1 [Example 1421, 2-{5-Chloro-2-[3-(2-methoxy-ethyl)-2,3,4,5-tetrahydro-1H-benzo[d]azepin-7-ylamino]-pyrimidin-4-ylamino}-N-cyclopropylmethyl-benzamide]

IC50 [1, 7]: < 100 nM
IC50 [2, 8]: > 10000 nM
SMILES: COc1cc2c(cc1Nc1ncc(Cl)c(Nc3ccc(N4CCOCC4)cc3OC)n1)CCN(Cc1ncco1)CC2 [Example 1180, 5-Chloro-N*4*-(2-methoxy-4-morpholin-4-yl-phenyl)-N*2*-(8-methoxy-3-oxazol-2-ylmethyl-2,3,4,5-tetrahydro-1H-benzo[d]azepin-7-yl)-pyrimidine-2,4-diamine]

IC50 [1, 7]: < 100 nM
IC50 [2, 8]: 1000 to 10000 nM
SMILES: COc1cc2c(cc1Nc1ncc(Cl)c(Nc3ccccc3S(=O)(=O)N3CCCC3)n1)CCN(Cc1ncco1)CC2 [Example 1191, 5-Chloro-N*2*-(8-methoxy-3-oxazol-2-ylmethyl-2,3,4,5-tetrahydro-1H-benzo[d]azepin-7-yl)-N*4*-[2-(pyrrolidine-1-sulfonyl)-phenyl]-pyrimidine-2,4-diamine]

IC50 [1, 5]: < 100 nM
IC50 [2, 6]: > 10000 nM
SMILES: COc1cc2c(cc1Nc1ncc(Cl)c(Nc3ccccc3-n3cccn3)n1)CCN(CC(F)F)CC2 [Example 823, 5-Chloro-N*2*-[3-(2,2-difluoro-ethyl)-8-methoxy-2,3,4,5-tetrahydro-1H-benzo[d]azepin-7-yl]-N*4*-(2-pyrazol-1-yl-phenyl)-pyrimidine-2,4-diamine]

IC50 [1, 5]: 100 to 1000 nM
IC50 [2, 6]: > 10000 nM
SMILES: Cc1cccnc1-c1ccccc1Nc1nc(Nc2ccc3c(c2)CCC(NCC(F)(F)F)CC3)ncc1Cl (stereo not shown) [Example 657, 5-Chloro-N*4*-[2-(3-methyl-pyridin-2-yl)-phenyl]-N*2*-[7-(2,2,2-trifluoro-ethylamino)-6,7,8,9-tetrahydro-5H-benzocyclohepten-2-yl]-pyrimidine-2,4-diamine]

IC50 [1, 5]: 1000 to 10000 nM
IC50 [2, 6]: > 10000 nM
SMILES: CC1(C)CCCOc2c(Nc3ncc(Cl)c(Nc4ccccc4OCC#N)n3)cccc21 [Example 880, {2-[5-Chloro-2-(5,5-dimethyl-2,3,4,5-tetrahydro-benzo[b]oxepin-9-ylamino)-pyrimidin-4-ylamino]-phenoxy}-acetonitrile]

Second part, the molecule before the results:

SMILES: CNC(=O)c1ccccc1Nc1nc(Nc2ccc3c(c2)C2CCC3CN(C(=O)C(F)(F)F)C2)ncc1Cl (stereo not shown) [Example 276, 2-{5-Chloro-2-[10-(2,2,2-trifluoro-acetyl)-10-aza-tricyclo[6.3.2.0*2,7*]trideca-2,4,6-trien-4-ylamino]-pyrimidin-4-ylamino}-N-methyl-benzamide]
IC50 [1, 3]: 100 to 1000 nM
IC50 [2, 4]: < 100 nM

SMILES: COc1cc2c(cc1Nc1ncc(Cl)c(Nc3ccc(Cl)cc3S(=O)(=O)N(C)C)n1)CCN(CC(=O)N1CCN(C)CC1)CC2 [Example 842, 5-Chloro-2-(5-chloro-2-{8-methoxy-3-[2-(4-methyl-piperazin-1-yl)-2-oxo-ethyl]-2,3,4,5-tetrahydro-1H-benzo[d]azepin-7-ylamino}-pyrimidin-4-ylamino)-N,N-dimethyl-benzenesulfonamide]
IC50 [1, 5]: < 100 nM
IC50 [2, 6]: > 10000 nM

SMILES: COc1cc2c(cc1Nc1ncc(F)c(Nc3ccc(N4CCN(C)CC4)cc3OC)n1)CCN(CC(=O)N(C)C)CC2 [Example 793, 2-(7-{5-Fluoro-4-[2-methoxy-4-(4-methyl-piperazin-1-yl)-phenylamino]-pyrimidin-2-ylamino}-8-methoxy-1,2,4,5-tetrahydro-benzo[d]azepin-3-yl)-N,N-dimethyl-acetamide]
IC50 [1, 5]: < 100 nM
IC50 [2, 6]: > 10000 nM

SMILES: COc1cc2c(cc1Nc1ncc(C(F)(F)F)c(Nc3ccc(N4CCOCC4)cc3OC)n1)N(C)C(=O)OCC2 [Example 1518, 2-Methoxy-3-[4-(2-methoxy-4-morpholin-4-yl-phenylamino)-5-trifluoromethyl-pyrimidin-2-ylamino]-5-methyl-8,9-dihydro-5H-7-oxa-5-aza-benzocyclohepten-6-one]
IC50 [1, 9]: 100 to 1000 nM
IC50 [2, 10]: 1000 to 10000 nM

SMILES: COc1cc2c(cc1Nc1ncc(Cl)c(Nc3ccc(N4CCN(C)CC4)cc3C)n1)CCN(CC(=O)N(C)C)CC2 [Example 802, 2-(7-{5-Chloro-4-[2-methyl-4-(4-methyl-piperazin-1-yl)-phenylamino]-pyrimidin-2-ylamino}-8-methoxy-1,2,4,5-tetrahydro-benzo[d]azepin-3-yl)-N,N-dimethyl-acetamide]
IC50 [1, 5]: < 100 nM
IC50 [2, 6]: > 10000 nM

SMILES: CNC(=O)c1cc(C)cc(C)c1Nc1nc(Nc2ccc3c(c2)CCOC(=O)N3C)ncc1Cl [Example 1750, 2-[5-Chloro-2-(5-methyl-6-oxo-5,6,8,9-tetrahydro-7-oxa-5-aza-benzocyclohepten-2-ylamino)-pyrimidin-4-ylamino]-3,5,N-trimethyl-benzamide]
IC50 [1, 9]: 1000 to 10000 nM
IC50 [2, 10]: < 100 nM

SMILES: COc1cc2c(cc1Nc1ncc(Cl)c(Nc3ccccc3S(=O)(=O)N3CCN(C)CC3)n1)CCN(CC(=O)N(C)C)CC2 [Example 837, 2-(7-{5-Chloro-4-[2-(4-methyl-piperazine-1-sulfonyl)-phenylamino]-pyrimidin-2-ylamino}-8-methoxy-1,2,4,5-tetrahydro-benzo[d]azepin-3-yl)-N,N-dimethyl-acetamide]
IC50 [1, 5]: < 100 nM
IC50 [2, 6]: > 10000 nM

SMILES: CNC(=O)CN1CCc2ccc(Nc3ncc(Cl)c(N[C@@H]4CCCC[C@H]4NS(C)(=O)=O)n3)cc2CC1 [Example 1374, 2-{7-[5-Chloro-4-((1R,2R)-2-methanesulfonylamino-cyclohexylamino)-pyrimidin-2-ylamino]-1,2,4,5-tetrahydro-benzo[d]azepin-3-yl}-N-methyl-acetamide]
IC50 [1, 7]: < 100 nM
IC50 [2, 8]: 100 to 1000 nM

SMILES: COc1c(Nc2ncc(Cl)c(N[C@@H]3CCCC[C@H]3NS(C)(=O)=O)n2)ccc2c1CCCC(=O)N2C [Example 118, N-{(1R,2R)-2-[5-Chloro-2-(6-methoxy-1-methyl-2-oxo-2,3,4,5-tetrahydro-1H-benzo[b]azepin-7-ylamino)-pyrimidin-4-ylamino]-cyclohexyl}-methanesulfonamide]
IC50 [1, 3]: < 100 nM
IC50 [2, 4]: > 10000 nM

SMILES: C#CCNC(=O)c1cccc(F)c1Nc1nc(Nc2ccc3c(c2)NC(=O)C(NC(=O)C(F)(F)F)CC3(C)C)ncc1Cl (stereo not shown) [Example 1279, 2-{5-Chloro-2-[5,5-dimethyl-2-oxo-3-(2,2,2-trifluoro-acetylamino)-2,3,4,5-tetrahydro-1H-1-benzazepin-8-ylamino]-pyrimidin-4-ylamino}-3-fluoro-N-prop-2-ynyl-benzamide]
IC50 [1, 7]: 100 to 1000 nM
IC50 [2, 8]: < 100 nM
